Experimental data: patent publication US20260132129A1 (Genesis Therapeutics, Inc., priority 2022, published 2026)

Target: T1, PI3Kα H1047R (T47D cells) (Homo sapiens, UniProt P42336, H1047R)
T1 construct: endogenous in cells; host or cells: T47D cells
Assay: PI3Kα cellular assay: pAKT HTRF in T47D cells after EGF stimulation
Assay type: cell-based
Conditions: for IC50: T47D cells (PI3Kα H1047R), pAKT S473 HTRF
Procedure, shortened: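 pAKT read by HTRF in lysates of EGF-stimulated (20 ng/mL, 10 min) T47D H1047R cells. Before stimulation, serum-starved cells (16 h) received compound for 1 h at 37 °C, dosed from 10,000 nM down to 0.5 nM in 3-fold steps.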

[1] = selectivity T47D (H1047R) over SKBR3 (WT), pAKT HTRF
[2] = 1 hr compound, 20 ng/ml EGF 10 min
[3] = selectivity of T47D (H1047R) over SKBR3 (WT) pAKT IC50

T1 sequence (P42336 whole entry H1047R): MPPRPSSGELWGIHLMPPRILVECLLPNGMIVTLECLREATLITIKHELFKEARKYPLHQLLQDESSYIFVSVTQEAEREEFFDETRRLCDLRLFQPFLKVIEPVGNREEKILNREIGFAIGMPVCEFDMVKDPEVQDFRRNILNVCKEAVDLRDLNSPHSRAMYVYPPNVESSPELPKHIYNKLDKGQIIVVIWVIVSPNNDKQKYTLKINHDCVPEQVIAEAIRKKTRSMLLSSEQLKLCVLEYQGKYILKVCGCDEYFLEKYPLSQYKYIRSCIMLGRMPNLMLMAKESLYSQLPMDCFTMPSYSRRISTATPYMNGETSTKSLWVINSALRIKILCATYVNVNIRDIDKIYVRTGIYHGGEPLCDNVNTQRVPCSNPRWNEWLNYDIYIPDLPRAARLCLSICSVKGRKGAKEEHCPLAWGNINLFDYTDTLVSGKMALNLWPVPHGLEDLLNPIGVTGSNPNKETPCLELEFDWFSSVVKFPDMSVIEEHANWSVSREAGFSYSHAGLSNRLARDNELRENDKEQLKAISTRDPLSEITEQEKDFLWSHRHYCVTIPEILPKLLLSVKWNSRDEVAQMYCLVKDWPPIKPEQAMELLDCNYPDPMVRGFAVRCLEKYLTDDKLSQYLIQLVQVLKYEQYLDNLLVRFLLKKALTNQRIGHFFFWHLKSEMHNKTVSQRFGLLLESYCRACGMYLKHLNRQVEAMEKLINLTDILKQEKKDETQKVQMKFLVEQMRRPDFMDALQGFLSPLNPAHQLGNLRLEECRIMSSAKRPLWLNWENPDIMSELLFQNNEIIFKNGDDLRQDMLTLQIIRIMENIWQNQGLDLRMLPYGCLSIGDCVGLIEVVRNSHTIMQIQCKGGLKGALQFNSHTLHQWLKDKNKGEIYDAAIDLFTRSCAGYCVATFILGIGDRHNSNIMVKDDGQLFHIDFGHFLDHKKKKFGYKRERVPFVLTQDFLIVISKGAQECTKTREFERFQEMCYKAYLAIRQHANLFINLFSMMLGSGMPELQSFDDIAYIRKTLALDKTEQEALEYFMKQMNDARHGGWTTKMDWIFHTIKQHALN
T1 sequence (P27986 whole entry partner): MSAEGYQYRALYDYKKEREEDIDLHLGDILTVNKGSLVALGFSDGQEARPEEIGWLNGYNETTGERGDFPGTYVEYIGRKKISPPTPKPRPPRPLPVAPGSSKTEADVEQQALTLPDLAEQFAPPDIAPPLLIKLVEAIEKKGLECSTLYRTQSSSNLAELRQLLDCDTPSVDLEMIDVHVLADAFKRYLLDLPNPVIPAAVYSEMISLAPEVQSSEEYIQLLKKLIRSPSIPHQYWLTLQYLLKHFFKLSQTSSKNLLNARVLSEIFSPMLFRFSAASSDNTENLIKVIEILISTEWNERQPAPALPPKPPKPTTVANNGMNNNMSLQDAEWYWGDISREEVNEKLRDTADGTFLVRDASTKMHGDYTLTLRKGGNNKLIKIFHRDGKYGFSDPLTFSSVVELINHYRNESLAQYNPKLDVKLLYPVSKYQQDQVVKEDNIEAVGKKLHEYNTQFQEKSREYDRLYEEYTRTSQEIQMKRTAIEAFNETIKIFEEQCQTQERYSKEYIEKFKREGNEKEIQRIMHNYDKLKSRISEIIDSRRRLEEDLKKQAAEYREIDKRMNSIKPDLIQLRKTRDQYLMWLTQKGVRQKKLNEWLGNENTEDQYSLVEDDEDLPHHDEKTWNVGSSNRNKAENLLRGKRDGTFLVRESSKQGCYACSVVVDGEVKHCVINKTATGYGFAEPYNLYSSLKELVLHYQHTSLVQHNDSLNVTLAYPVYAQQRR

Compound	T47D pAKT S473 HTRF IC50 (H1047R): T47D (H1047R) selectivity over SKBR3 (WT) [1]	IC50 (EGF stimulation) [nM]	IC50 [2] [nM]	T47D pAKT S473 HTRF IC50 (H1047R): T47D (H1047R) selectivity over SKBR3 (WT) [3]
Cc1cc([C@H](C)N[C@@H](C(=O)O)c2ccccc2)c2nc(N3CCOCC3)cc(=O)n2c1 [Compound 651]		> 2000		C (C denotes ≤5-fold)
Cc1cc([C@H](C)Nc2ccccc2S(C)(=O)=O)c2nc(N3CCOCC3)cc(=O)n2c1 [Compound 160]	C (C denotes ≤5-fold)		> 2000	
Cc1cc(C(C)Nc2ccccc2S(N)(=O)=O)c2nc(-c3ccc(F)cc3)cc(=O)n2c1 (centres unmarked) [Compound 586]	C (C denotes ≤5-fold)		> 2000	
Cc1cc([C@@H](C)Nc2ccccc2C(=O)O)c2nc(-c3ccc(C(=O)N(C)C)cc3)cc(=O)n2c1 [Compound 658]		100 to 500		A (A denotes >20-fold)
Cc1cc(C(C)Nc2ccccc2C(=O)O)c2nc(-c3c(C)ccc4[nH]ncc34)c(C)c(=O)n2c1 (centres unmarked) [Compound 813]		> 2000		C (C denotes ≤5-fold)
Cc1cc([C@@H](C)Nc2ccccc2C(=O)O)c2nc(-c3ccc4c(c(N)nn4C)c3C)c(C)c(=O)n2c1 [Compound 787]		> 2000		C (C denotes ≤5-fold)
Cc1cc([C@H](C)Nc2ccccc2C(=O)O)c2nc(-c3cnc4c(c3)c(C)c(C)n4C)c(C)c(=O)n2c1 [Compound 805]		> 2000		C (C denotes ≤5-fold)
Cc1cc([C@@H](C)Nc2ccccc2C(=O)O)c2nc(-c3ccc4c(C)n[nH]c4c3)cc(=O)n2c1 [Compound 923]				B (B denotes 20-fold≥value>5-fold)
Cc1cc([C@H](C)Nc2ccccc2S(C)(=O)=O)c2nc(-c3ccc4c(C)cn(C)c4c3)c(C)c(=O)n2c1 [Compound 1062]	C (C denotes ≤5-fold)			
Cc1cc(C(C)Nc2cccnc2C(=O)O)c2nc(-c3cccc(F)c3)c(C)c(=O)n2c1 (centres unmarked) [Compound 1223]	A (A denotes >20-fold)	< 100		
Cc1cc(C(C)Nc2ccccc2C(=O)O)c2nc(-c3ccc4c(c3)NC(CO)N4)cc(=O)n2c1 (centres unmarked) [Compound 466]	C (C denotes ≤5-fold)		> 2000	
Cc1cc([C@H](C)Nc2ccccc2C(=O)O)c2nc(-c3ccnc(C4CC4)c3)c(C)c(=O)n2c1 [Compound 954]		500 to 2000		B (B denotes 20-fold≥value>5-fold)
Cc1cc(C(C)Nc2cccnc2C(=O)O)c2nc(-c3ccnc(C4CC4)c3)c(C)c(=O)n2c1 (centres unmarked) [Compound 1241]	A (A denotes >20-fold)	> 2000		
Cc1cc([C@H](C)N[C@H](C(=O)O)c2ccccc2)c2nc(N3CCOCC3)cc(=O)n2c1 [Compound 650]		> 2000		C (C denotes ≤5-fold)
Cc1cc([C@H](C)Oc2ccccc2C(=O)O)c2nc(-c3cccc(F)c3)c(C)c(=O)n2c1 [Compound 1373]	C (C denotes ≤5-fold)	> 2000		
Cc1cc([C@@H](C)Nc2ccccc2C(=O)O)c2nc(-c3ccc4sc(=O)[nH]c4c3)cc(=O)n2c1 (single isomer, unassigned) [Compound 593]	A (A denotes >20-fold)		< 100	
Cc1cc([C@@H](C)Nc2ccccc2C(=O)O)c2nc(-c3cccc(C(F)F)c3)cc(=O)n2c1 [Compound 1113]	C (C denotes ≤5-fold)	> 2000		

Further lines, results first:

T47D pAKT S473 HTRF IC50 (H1047R): T47D (H1047R) selectivity over SKBR3 (WT) [1]	IC50 (EGF stimulation) [nM]	IC50 [2] [nM]	T47D pAKT S473 HTRF IC50 (H1047R): T47D (H1047R) selectivity over SKBR3 (WT) [3]	Compound
C (C denotes ≤5-fold)				Cc1cc([C@H](C)Nc2ccccc2C(=O)O)c2nc(-c3ccccc3)cc(=O)n2c1 [Compound 423]
B (B denotes 20-fold≥value>5-fold)	500 to 2000			Cc1cc([C@H](C)Nc2ccccc2-c2ccnnc2)c2nc(-c3ccc4c(C)nn(C5CC5)c4c3)c(C)c(=O)n2c1 [Compound 1129]
A (A denotes >20-fold)	100 to 500			Cc1cc(C(C)Nc2ccccc2C(N)=O)c2nc(-c3cnc(C)c(Cl)c3)c(C)c(=O)n2c1 (centres unmarked) [Compound 1094]
A (A denotes >20-fold)	< 100			Cc1cc(C(C)Nc2ccccc2C(=O)O)c2nc(-c3ccc(C4CCN(C(=O)C5CC5)CC4)c(F)c3)c(C)c(=O)n2c1 (centres unmarked) [Compound 1300]
B (B denotes 20-fold≥value>5-fold)		500 to 2000		Cc1cc(C(C)Nc2ccccc2C(=O)O)c2nc(N3CCC4(CC3)COC4)cc(=O)n2c1 (centres unmarked) [Compound 471]
A (A denotes >20-fold)	< 100			Cc1cc(C(C)Nc2ccccc2C(=O)O)c2nc(-c3cnc4c(c3)c(C)nn4C)c(C)c(=O)n2c1 (centres unmarked) [Compound 1411, 2-((1-(2-(1,3-dimethyl-1H-pyrazolo[3,4-b]pyridin-5-yl)-3,7-dimethyl-4-oxo-4H-pyrido[1,2-a]pyrimidin-9-yl)ethyl)amino)benzoic acid]
	100 to 500		A (A denotes >20-fold)	CCc1c(-c2ccc3c(c2)c(C)cn3C)nc2c(C(C)Nc3ccccc3C(=O)O)cc(C)cn2c1=O (centres unmarked) [Compound 1019]
A (A denotes >20-fold)		100 to 500		Cc1cc([C@@H](C)Nc2ccccc2C(=O)O)c2nc(-c3ccc4[nH]cnc4c3)cc(=O)n2c1 [Compound 516]
	100 to 500		A (A denotes >20-fold)	CNS(=O)(=O)c1ccccc1NC(C)c1cc(C)cn2c(=O)cc(N3Cc4ccccc4C3)nc12 (centres unmarked) [Compound 835]
C (C denotes ≤5-fold)	> 2000			Cc1cc([C@H](C)Nc2ccccc2C(=O)O)c2nc(-c3ccc(C4CCOCC4)nc3)c(C)c(=O)n2c1 [Compound 1147]
	500 to 2000		B (B denotes 20-fold≥value>5-fold)	Cc1cc(C(C)Nc2ccccc2C(=O)O)c2nc(-c3cc(C(N)=O)c4[nH]ccc4c3)cc(=O)n2c1 (centres unmarked) [Compound 753]
C (C denotes ≤5-fold)		> 2000		Cc1cc(C(C)NC2=CC=CCC2C(=O)O)c2nc(Cc3cccc(C4=CCCC=C4)c3)c(C)c(=O)n2c1 (centres unmarked) [Compound 300]
C (C denotes ≤5-fold)		> 2000		Cc1cc(C(C)Nc2ccccc2C(=O)O)c2nc(N3CCSCC3)cc(=O)n2c1 (centres unmarked) [Compound 239]
A (A denotes >20-fold)	100 to 500			Cc1cc([C@@H](C)Nc2ccccc2C(N)=O)c2nc(-c3ccc(C4CC4)nc3)c(C)c(=O)n2c1 [Compound 1153]
C (C denotes ≤5-fold)				Cc1cc(C(C)Nc2ccccc2C(=O)O)c2nc(C3=CCC(C4CN(C)C4)C=C3)c(C)c(=O)n2c1 (centres unmarked) [Compound 1322]
	100 to 500		A (A denotes >20-fold)	Cc1cc(C(C)Nc2ccccc2C(=O)O)c2nc(-c3ccc4c(c3)c(N)nn4C3CC3)cc(=O)n2c1 (centres unmarked) [Compound 870]
C (C denotes ≤5-fold)		> 2000		Cc1cc([C@H](C)Nc2ccccc2C(=O)O)c2nc(Nc3ccc4[nH]c(=O)[nH]c4c3)cc(=O)n2c1 [Compound 574]
C (C denotes ≤5-fold)		> 2000		Cc1cc(C(C)Nc2ccccc2C(=O)O)c2nc(C3CCC(NS(C)(=O)=O)CC3)c(C)c(=O)n2c1 (centres unmarked) [Compound 543]
A (A denotes >20-fold)	100 to 500			COc1cc(-c2nc3c([C@@H](C)Nc4ccccc4C(=O)O)cc(C)cn3c(=O)c2C)cn2ncc(C#N)c12 [Compound 1291]
A (A denotes >20-fold)		< 100		Cc1cc([C@@H](C)Nc2ccccc2S(N)(=O)=O)c2nc(N3Cc4ccccc4C3)cc(=O)n2c1 [Compound 605, (R)-2-((1-(2-(isoindolin-2-yl)-7-methyl-4-oxo-4H-pyrido[1,2-a]pyrimidin-9-yl)ethyl)amino)benzenesulfonamide]
A (A denotes >20-fold)	< 100			Cc1cc(C(C)Nc2ccccc2C(=O)O)c2nc(-c3cc(C)nc(Cl)c3)c(C)c(=O)n2c1 (centres unmarked) [Compound 1099]
C (C denotes ≤5-fold)	> 2000			Cc1cc([C@@H](C)Nc2ccccc2C(=O)O)c2nc(-c3cccc(F)c3)c(C)c(=O)n2c1 [Compound 1073]
	< 100		A (A denotes >20-fold)	Cc1cc([C@@H](C)Nc2ccccc2C(=O)O)c2nc(-c3cccc(C4CC4)c3)c(C)c(=O)n2c1 (single isomer, unassigned) [Compound 971]
	> 2000		C (C denotes ≤5-fold)	Cc1cc([C@@H](C)Nc2ccccc2C(=O)C(F)(F)F)c2nc(N(C)Cc3ccccc3)c(C)c(=O)n2c1 [Compound 957]
	> 2000		C (C denotes ≤5-fold)	Cc1cc([C@H](C)Nc2ccccc2C(=O)O)c2nc(-c3ccc4c(c3)c(N)nn4C)cc(=O)n2c1 [Compound 786]
